Literature values in article PMC9516332 (Frontiers in Oncology, 2022).
Like-named read-outs stand apart in the source and are kept apart here.

Legend:
Settings in all cases: cited from earlier work
[1] = biological target: T1, panel of 255 wild-type kinases (Homo sapiens, UniProt O14965)
T1 sequence (O14965 1-403): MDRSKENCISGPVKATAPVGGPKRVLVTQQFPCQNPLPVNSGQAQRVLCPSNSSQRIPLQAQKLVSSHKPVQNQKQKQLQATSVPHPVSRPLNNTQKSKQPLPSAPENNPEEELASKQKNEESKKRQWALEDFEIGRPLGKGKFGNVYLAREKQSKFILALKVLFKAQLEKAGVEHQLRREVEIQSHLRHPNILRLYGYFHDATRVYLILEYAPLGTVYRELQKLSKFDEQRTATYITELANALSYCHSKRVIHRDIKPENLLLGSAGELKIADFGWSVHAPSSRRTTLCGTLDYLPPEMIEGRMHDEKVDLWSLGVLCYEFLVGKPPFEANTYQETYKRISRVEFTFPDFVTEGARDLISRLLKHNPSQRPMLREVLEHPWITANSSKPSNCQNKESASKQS

[2] = biological target: panel of 255 wild-type kinases (Homo sapiens, UniProt P78368)
[3] = biological target: panel of 255 wild-type kinases (Homo sapiens, UniProt P54756)
[4] = biological target: panel of 255 wild-type kinases (Homo sapiens, UniProt O95819)
[5] = biological target: panel of 255 wild-type kinases (Homo sapiens, UniProt P49759)
[6] = biological target: panel of 255 wild-type kinases (Homo sapiens, UniProt P31751)
[7] = biological target: panel of 255 wild-type kinases (Homo sapiens, UniProt Q14012)
[8] = biological target: T2, panel of 255 wild-type kinases (Homo sapiens, UniProt O15111)
T2 sequence (O15111 1-745): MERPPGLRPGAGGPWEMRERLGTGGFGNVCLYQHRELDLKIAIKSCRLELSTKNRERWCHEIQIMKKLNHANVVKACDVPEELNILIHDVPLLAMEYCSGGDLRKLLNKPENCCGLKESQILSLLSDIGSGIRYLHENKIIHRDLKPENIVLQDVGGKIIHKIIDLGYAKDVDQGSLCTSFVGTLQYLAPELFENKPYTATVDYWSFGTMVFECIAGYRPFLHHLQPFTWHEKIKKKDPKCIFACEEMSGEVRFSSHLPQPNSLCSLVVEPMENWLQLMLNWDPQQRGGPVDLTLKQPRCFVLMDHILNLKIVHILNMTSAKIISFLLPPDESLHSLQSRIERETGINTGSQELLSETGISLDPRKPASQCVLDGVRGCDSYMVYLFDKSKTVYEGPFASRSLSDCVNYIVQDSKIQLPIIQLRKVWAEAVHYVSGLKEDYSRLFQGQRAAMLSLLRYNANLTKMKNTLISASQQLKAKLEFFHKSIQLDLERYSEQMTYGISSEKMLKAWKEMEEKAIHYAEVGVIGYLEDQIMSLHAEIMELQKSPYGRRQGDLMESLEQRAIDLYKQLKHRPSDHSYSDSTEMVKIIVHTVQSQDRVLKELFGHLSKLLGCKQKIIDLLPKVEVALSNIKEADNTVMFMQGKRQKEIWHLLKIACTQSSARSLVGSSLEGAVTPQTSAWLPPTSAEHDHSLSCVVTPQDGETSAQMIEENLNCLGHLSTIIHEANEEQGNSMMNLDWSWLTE

[9] = biological target: panel of 255 wild-type kinases (Homo sapiens, UniProt P04629)
[10] = test system: panel of 255 wild-type kinases
[11] = AurA kinase assay, 1 µmol/L single concentration, ref DOI: 10.1158/1535-7163.MCT-18-0877
[12] = AurA/TPX2 kinase assay, 1 µmol/L single concentration, ref DOI: 10.1158/1535-7163.MCT-18-0877
[13] = kinase CK1γ2, 1 µmol/L single concentration, ref DOI: 10.1158/1535-7163.MCT-18-0877
[14] = kinase EPHA5, 1 µmol/L single concentration, ref DOI: 10.1158/1535-7163.MCT-18-0877
[15] = kinase HGK, 1 µmol/L single concentration, ref DOI: 10.1158/1535-7163.MCT-18-0877
[16] = kinase CLK1, 1 µmol/L single concentration, ref DOI: 10.1158/1535-7163.MCT-18-0877
[17] = AKT2 kinase assay, 1 µmol/L single concentration, ref DOI: 10.1158/1535-7163.MCT-18-0877
[18] = CaMK1α kinase assay, 1 µmol/L single concentration, ref DOI: 10.1158/1535-7163.MCT-18-0877
[19] = kinase IKKα, 1 µmol/L single concentration, ref DOI: 10.1158/1535-7163.MCT-18-0877
[20] = kinase TRKA, 1 µmol/L single concentration, ref DOI: 10.1158/1535-7163.MCT-18-0877
[21] = kinase FYN [isoform b], 1 µmol/L single concentration, ref DOI: 10.1158/1535-7163.MCT-18-0877
[22] = kinase LYNb, 1 µmol/L single concentration, ref DOI: 10.1158/1535-7163.MCT-18-0877
[23] = kinase PKCβ2, 1 µmol/L single concentration, ref DOI: 10.1158/1535-7163.MCT-18-0877
[24] = kinase SRM, 1 µmol/L single concentration, ref DOI: 10.1158/1535-7163.MCT-18-0877
[25] = kinase HGK, 1 µmol/L single concentration, ref DOI: 10.1371/journal.pone.0092146
[26] = kinase CLK1, 1 µmol/L single concentration, ref DOI: 10.1371/journal.pone.0092146
[27] = kinase LYNb, 1 µmol/L single concentration, ref DOI: 10.1371/journal.pone.0092146
[28] = kinase PKCβ2, 1 µmol/L single concentration, ref DOI: 10.1371/journal.pone.0092146
[29] = kinase SRM, 1 µmol/L single concentration, ref DOI: 10.1371/journal.pone.0092146
[30] = kinase EPHA5, 1 µmol/L single concentration, ref DOI: 10.1371/journal.pone.0092146
[31] = AKT2 kinase assay, 1 µmol/L single concentration, ref DOI: 10.1371/journal.pone.0092146
[32] = CaMK1α kinase assay, 1 µmol/L single concentration, ref DOI: 10.1371/journal.pone.0092146
[33] = kinase IKKα, 1 µmol/L single concentration, ref DOI: 10.1371/journal.pone.0092146
[34] = kinase TRKA, 1 µmol/L single concentration, ref DOI: 10.1371/journal.pone.0092146

Structure (SMILES): O=C(c1ccc(F)c(F)c1Nc1ccc(I)cc1F)N1CC(O)([C@@H]2CCCCN2)C1 [cobimetinib]
- %-inhibition AurA [1, 11]: -0.696%
- %-inhibition AurA/TPX2 [1, 12]: -1.88%
- %-inhibition at 1 µmol/L, CK1γ2 [2, 13]: 2.37%
- %-inhibition at 1 µmol/L, EPHA5 [3, 14]: 1.26%
- %-inhibition at 1 µmol/L, HGK [4, 15]: 2.27%
- %-inhibition at 1 µmol/L, CLK1 [5, 16]: -0.28%
- %-inhibition AKT2 [6, 17]: -2.75%
- %-inhibition CaMK1α [7, 18]: 9%
- %-inhibition at 1 µmol/L, IKKα [8, 19]: 1.07%
- %-inhibition at 1 µmol/L, TRKA [9, 20]: 18%
- %-inhibition at 1 µmol/L, FYN [isoform b] [10, 21]: -0.687%
- %-inhibition at 1 µmol/L, LYNb [10, 22]: 8%
- %-inhibition at 1 µmol/L, PKCβ2 [10, 23]: -2%
- %-inhibition at 1 µmol/L, SRM [10, 24]: 1.37%

Structure (SMILES): CC(C)(C)c1nc(-c2cccc(NS(=O)(=O)c3c(F)cccc3F)c2F)c(-c2ccnc(N)n2)s1 [dabrafenib]
- %-inhibition at 1 µmol/L, HGK [4, 25]: 7%
- %-inhibition at 1 µmol/L, CLK1 [5, 26]: 7%
- %-inhibition at 1 µmol/L, LYNb [10, 27]: 86%
- %-inhibition at 1 µmol/L, PKCβ2 [10, 28]: -3%
- %-inhibition at 1 µmol/L, SRM [10, 29]: 100%

Structure (SMILES): Cc1cc(Nc2ncc(Cl)c(Nc3ccccc3S(=O)(=O)C(C)C)n2)c(OC(C)C)cc1C1CCNCC1 [ceritinib]
- %-inhibition AurA [1, 11]: 12%
- %-inhibition AurA/TPX2 [1, 12]: 2.84%
- %-inhibition at 1 µmol/L, CK1γ2 [2, 13]: 0.506%
- %-inhibition at 1 µmol/L, EPHA5 [3, 14]: 5%
- %-inhibition at 1 µmol/L, HGK [4, 15]: 10%
- %-inhibition at 1 µmol/L, CLK1 [5, 16]: 99%
- %-inhibition AKT2 [6, 17]: -4.7%
- %-inhibition CaMK1α [7, 18]: 37%
- %-inhibition at 1 µmol/L, IKKα [8, 19]: -0.91%
- %-inhibition at 1 µmol/L, FYN [isoform b] [10, 21]: -4%
- %-inhibition at 1 µmol/L, LYNb [10, 22]: 11%
- %-inhibition at 1 µmol/L, PKCβ2 [10, 23]: 4%
- %-inhibition at 1 µmol/L, SRM [10, 24]: 40%

Structure (SMILES): CCc1cc2c(cc1N1CCC(N3CCOCC3)CC1)C(C)(C)c1[nH]c3cc(C#N)ccc3c1C2=O [alectinib]
- %-inhibition AurA [1, 11]: 5%
- %-inhibition AurA/TPX2 [1, 12]: -3%
- %-inhibition at 1 µmol/L, CK1γ2 [2, 13]: -0.041%
- %-inhibition at 1 µmol/L, EPHA5 [3, 14]: 2.67%
- %-inhibition at 1 µmol/L, HGK [4, 15]: 20%
- %-inhibition at 1 µmol/L, CLK1 [5, 16]: 43%
- %-inhibition AKT2 [6, 17]: 0.306%
- %-inhibition CaMK1α [7, 18]: 2.11%
- %-inhibition at 1 µmol/L, IKKα [8, 19]: -0.856%
- %-inhibition at 1 µmol/L, TRKA [9, 20]: 62%
- %-inhibition at 1 µmol/L, FYN [isoform b] [10, 21]: 12%
- %-inhibition at 1 µmol/L, LYNb [10, 22]: 15%
- %-inhibition at 1 µmol/L, PKCβ2 [10, 23]: 0.0492%
- %-inhibition at 1 µmol/L, SRM [10, 24]: 41%

Structure (SMILES): CCCS(=O)(=O)Nc1ccc(F)c(C(=O)c2c[nH]c3ncc(-c4ccc(Cl)cc4)cc23)c1F [vemurafenib]
- %-inhibition AurA ([1]; AurA kinase assay, 1 µmol/L single concentration, ref DOI: 10.1371/journal.pone.0092146): 23%
- %-inhibition AurA/TPX2 ([1]; AurA/TPX2 kinase assay, 1 µmol/L single concentration, ref DOI: 10.1371/journal.pone.0092146): -2.59%
- %-inhibition at 1 µmol/L, CK1γ2 ([2]; kinase CK1γ2, 1 µmol/L single concentration, ref DOI: 10.1371/journal.pone.0092146): 0.506%
- %-inhibition at 1 µmol/L, EPHA5 [3, 30]: 14%
- %-inhibition at 1 µmol/L, HGK [4, 25]: 26%
- %-inhibition at 1 µmol/L, CLK1 [5, 26]: 5%
- %-inhibition AKT2 [6, 31]: -3%
- %-inhibition CaMK1α [7, 32]: -3.18%
- %-inhibition at 1 µmol/L, IKKα [8, 33]: -1.89%
- %-inhibition at 1 µmol/L, TRKA [9, 34]: 16%
- %-inhibition at 1 µmol/L, LYNb [10, 27]: 62%
- %-inhibition at 1 µmol/L, PKCβ2 [10, 28]: -3%
- %-inhibition at 1 µmol/L, SRM [10, 29]: 102%

Structure (SMILES): COc1cc(N2CCC(N3CCN(C)CC3)CC2)ccc1Nc1ncc(Cl)c(Nc2ccccc2P(C)(C)=O)n1 [brigatinib]
- %-inhibition AurA [1]: 79%
- %-inhibition AurA/TPX2 [1]: 74%
- %-inhibition at 1 µmol/L, CK1γ2 [2]: -2.5%
- %-inhibition at 1 µmol/L, EPHA5 [3]: 4%
- %-inhibition at 1 µmol/L, HGK [4]: 18%
- %-inhibition at 1 µmol/L, CLK1 [5]: 100%
- %-inhibition AKT2 [6]: -1%
- %-inhibition CaMK1α [7]: 28%
- %-inhibition at 1 µmol/L, IKKα [8]: -0.856%
- %-inhibition at 1 µmol/L, TRKA [9]: 83%
- %-inhibition at 1 µmol/L, FYN [isoform b] [10]: 56%
- %-inhibition at 1 µmol/L, LYNb [10]: 43%
- %-inhibition at 1 µmol/L, PKCβ2 [10]: 31%
- %-inhibition at 1 µmol/L, SRM [10]: 92%

Structure (SMILES): CO[C@@H]1[C@H](N(C)C(=O)c2ccccc2)C[C@H]2O[C@]1(C)n1c3ccccc3c3c4c(c5c6ccccc6n2c5c31)C(=O)NC4 [midostaurin]
- %-inhibition AurA [1]: 100%
- %-inhibition AurA/TPX2 [1]: 91%
- %-inhibition at 1 µmol/L, CK1γ2 [2, 13]: -2.45%
- %-inhibition at 1 µmol/L, EPHA5 [3, 14]: 8%
- %-inhibition at 1 µmol/L, HGK [4, 15]: 97%
- %-inhibition at 1 µmol/L, IKKα [8, 19]: -0.107%
- %-inhibition at 1 µmol/L, TRKA [9, 20]: 100%

Structure (SMILES): C=CC(=O)N1CCC[C@@H](n2nc(-c3ccc(Oc4ccccc4)cc3)c3c(N)ncnc32)C1 [ibrutinib]
- %-inhibition AurA [1, 11]: 30%
- %-inhibition AurA/TPX2 [1, 12]: -2.33%
- %-inhibition at 1 µmol/L, CK1γ2 [2, 13]: 1%
- %-inhibition at 1 µmol/L, EPHA5 [3, 14]: 26%
- %-inhibition at 1 µmol/L, HGK [4, 15]: -0.0249%
- %-inhibition AKT2 [6, 17]: -3%
- %-inhibition CaMK1α [7, 18]: 14%
- %-inhibition at 1 µmol/L, IKKα [8, 19]: 4.34%
- %-inhibition at 1 µmol/L, TRKA [9, 20]: 59%
- %-inhibition at 1 µmol/L, FYN [isoform b] [10, 21]: 87%
- %-inhibition at 1 µmol/L, LYNb [10, 22]: 100%
- %-inhibition at 1 µmol/L, PKCβ2 [10, 23]: 1.78%
- %-inhibition at 1 µmol/L, SRM [10, 24]: 102%

Structure (SMILES): C[C@@H](Oc1cc(-c2cnn(C3CCNCC3)c2)cnc1N)c1c(Cl)ccc(F)c1Cl [crizotinib]
- %-inhibition at 1 µmol/L, EPHA5 [3, 30]: 71%
- %-inhibition at 1 µmol/L, CLK1 [5, 26]: 13%
- %-inhibition AKT2 [6, 31]: -2.67%
- %-inhibition CaMK1α [7, 32]: 0.734%
- %-inhibition at 1 µmol/L, IKKα [8, 33]: -1.78%
- %-inhibition at 1 µmol/L, TRKA [9, 34]: 103%
- %-inhibition at 1 µmol/L, LYNb [10]: 34%
- %-inhibition at 1 µmol/L, PKCβ2 [10]: -1.6%
- %-inhibition at 1 µmol/L, SRM [10]: 1.51%
